Assay: DPPH radical scavenging antioxidant test
Type: biochemical
Conditions: 517 nm; for Inhibition (radical scavenging inhibition): 0.2 mL DPPH (0.75 mM), compound 3 μM in ethanol, 30 min incubation in the dark
Method: The antioxidant activity of 5,5′-naphthalene-1,5-diylbis(diazene-2,1-diyl)bis(2-hydroxybenzaldehyde) was investigated by 2,2-diphenyl-1-picrylhydrazyl (DPPH) in vitro tests that employ vitamin C as the positive control.
The antioxidant properties of the 5,5′-naphthalene-1,5-diylbis(diazene-2,1-diyl)bis(2-hydroxybenzaldehyde) were studied by adding 0.2 mL DPPH (0.75 mM)) to compound 5,5′-naphthalene-1,5-diylbis(diazene-2,1-diyl)bis(2-hydroxybenzaldehyde) (III) (3 μM) in ethanol. After 30 min of incubation in the dark, the absorbance was read against a blank at 517 nm. Ascorbic acid (vitamin C) was used as standard antioxidants (positive control). A blank sample was prepared by 0.2 ml of DPPH in 3 ml ethanol. A negative control sample was run using ethanol instead of the sample. The radical scavenging inhibition was calculated using the following equation: […]
The antioxidant activity for the synthesized compound is listed in Table 1, using Vitamin C as a reference.

| SMILES | Inhibition (radical scavenging inhibition) [%] | antioxidant potential compared to vitamin C (vanishing DPPH radical colors) (DPPH in vitro test, vitamin C as positive control) |
| --- | --- | --- |
| O=C1O[C@H]([C@@H](O)CO)C(O)=C1O [vit c, Ascorbic acid, reference compound] | 74 | – |
| O=Cc1cc(/N=N\c2cccc3c(/N=N/c4ccc(O)c(C=O)c4)cccc23)ccc1O [Product III, 5,5′-naphthalene-1,5-diylbis(diazene-2,1-diyl)bis(2-hydroxybenzaldehyde)] | 54 | high potential as an antioxidant |
